Measurements reported in article PMC6930570, “2-Arylidene-1-indandiones as Pleiotropic Agents with Antioxidant and Inhibitory Enzymes Activities” (Molecules, 2019).

Legend:
[1] = test system: carrageenin-induced rat paw edema; assay: Inhibition of the carrageenin-induced rat paw edema (CPE); format: in vivo, Fisher 344 rats; conditions: Rattus norvegicus, ip; 0.01 mmol/kg body weight, intraperitoneally, 3.5 h after carrageenin; read-out: CPE % (reduction of the rat paw edema)
Excerpt: Carrageenin-induced rat paw edema (CPE) model was used to study the in vivo anti-inflammatory activity of the tested derivatives and the results are presented in Table 3. […] Compounds 2, 7, 8, 10, and 12 presented small differences in their biological activity. The presence of the thienyl group as well as of the furyl leads to higher anti-inflammatory activity (1 and 3) while substitution with a phenyl group leads to two-fold decrease of the activity (28%).
Edema was induced in the right hind paw of Fisher 344 rats (150–200 g) by the intradermal injection of 0.1 mL 2% carrageenin in water. Both sexes were used while females pregnant were excluded. Each group was composed of 6–15 animals. The animals, which have been bred in our laboratory, were housed under standard conditions and received a diet of commercial food pellets and water ad libitum during the maintenance but they were entirely fasted during the experiment period. Our studies were in accordance with recognised guidelines on animal experimentation. (guidelines for the care and use of laboratory animals published by the Greek Government 160/1991, based on EU regulations 86/609). Rats were kept in the Centre of the School of Veterinary Medicine (EL54 BIO42), Aristotle University of Thessaloniki, which is registered by the official state veterinary authorities (presidential degree 56/2013, in harmonization with the European Directive 2010/63/EEC). The experimental protocols were approved by the Animal Ethics Committee of the Prefecture of Central Macedonia (no. 270079/2500). The tested compounds 0.01 mmol/kg body weight were suspended in water, with a few drops of Tween 80 and ground in a mortar before use and were given intraperitoneally simultaneously with the carrageenin injection. The rats were euthanized 3.5 h after carrageenin injection. The difference between the weight of the injected and uninjected paws was calculated for each animal. The change in paw weight was compared with that in control animals (treated with water) and expressed as a percent inhibition of the edema CPE % values […] [58, 59]. Indomethacin in 0.01 mmol/kg (47%). Values CPE % are the mean from two different experiments with a standard error of the mean less than 10% (Table 3).

[2] = Reducing activity of the stable radical DPPH; format: biochemical
Protocol: The novel derivatives were studied for their interaction with the sTable 2,2-diphenyl-1-picrylhydrazyl free radical (DPPH)at concentration 50 µM, 100 µM and 200 µM after 20 and 60 min (Table 2). In this assay the DPPH radical is reduced transferring one electron from the antioxidant. Phenolic compounds such as catechol and derivatives generate phenoxide anions with strong antioxidant capacity. Nordihydroguaretic acid (NDGA), the reference compound acts by this mechanism. Compound 10 presents the highest scavenging activity at 100 µM after 20 min correlated with the presence of the phenolic OH. Compounds 3, 4, 5, 7 presented medium activities depending from time and concentration. The presence of the heteroatom O or S seems to influence the activity e.g., derivatives 1, 2, and 3. Replacement of phenyl ring (4) by a thienyl group (1) decreases antioxidant behavior. […] On the contrary the presence of the furyl ring (3) enhances reduction. Additionally, the presence of a π-dimethyl-amino group 6 reduces the scavenging ability whereas its absence in (5), increases the activity. The presence of two conjugated double bonds (5) leads to lower activity compared to the simpler compound 4. Compounds 9 and 10 present the highest milogP values (5.94). Both include a phenolic hydrogen in their structure. […] On the contrary in compound 9 steric reasons are possible to lead to a decrease. Lipophilicity seems to influence the interaction of compound 10.
To a solution of DPPH in absolute ethanol an equal volume of the compounds with final concentrations of 50, 100 and 200 µM from a stock solution of 10 mM (in 1% DMSO and ethanol) was added. After 20 and 60 min the absorbance was recorded at 517 nm at room temperature (Table 2).

soybean lipoxygenase = target: T1, soybean lipoxygenase (Glycine max, UniProt P08170); assay: Soybean lipoxygenase inhibition in vitro; format: biochemical; conditions: sodium linoleate substrate, no = no action under the experimental conditions, read-out: LOX (% Inhibition 100 µM)
T1 construct: purchased Sigma Chemical, Co. (St. Louis)
T1 sequence (P08170 1-839): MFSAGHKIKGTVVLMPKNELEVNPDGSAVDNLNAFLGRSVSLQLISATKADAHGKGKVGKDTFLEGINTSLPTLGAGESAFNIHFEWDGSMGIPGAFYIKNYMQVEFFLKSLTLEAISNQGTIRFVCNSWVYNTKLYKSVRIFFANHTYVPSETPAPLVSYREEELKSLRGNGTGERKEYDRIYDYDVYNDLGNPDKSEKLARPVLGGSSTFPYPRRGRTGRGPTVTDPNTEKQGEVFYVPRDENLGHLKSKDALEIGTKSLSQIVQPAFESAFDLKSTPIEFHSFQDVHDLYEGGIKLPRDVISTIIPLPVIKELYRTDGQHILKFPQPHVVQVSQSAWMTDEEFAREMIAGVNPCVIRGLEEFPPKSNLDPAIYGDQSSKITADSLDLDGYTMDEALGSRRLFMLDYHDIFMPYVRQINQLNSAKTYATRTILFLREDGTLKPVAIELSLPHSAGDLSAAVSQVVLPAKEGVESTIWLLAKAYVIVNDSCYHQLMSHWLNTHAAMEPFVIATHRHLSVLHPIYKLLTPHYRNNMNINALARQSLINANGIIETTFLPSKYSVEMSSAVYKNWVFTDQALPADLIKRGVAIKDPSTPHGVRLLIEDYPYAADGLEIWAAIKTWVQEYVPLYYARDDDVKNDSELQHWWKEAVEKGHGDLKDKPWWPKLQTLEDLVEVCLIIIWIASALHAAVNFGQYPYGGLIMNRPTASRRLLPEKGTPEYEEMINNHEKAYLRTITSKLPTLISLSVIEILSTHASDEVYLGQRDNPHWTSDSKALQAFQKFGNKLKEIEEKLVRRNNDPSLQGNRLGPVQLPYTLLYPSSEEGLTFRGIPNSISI
Protocol: Thus, we used soybean LOX in our in vitro experiments.
In vitro study was performed as reported previously by our group. Sodium linoleate (0.1 mM) and 0.2 mL of enzyme solution (1/9 × 104 w/v in saline) were used for the incubation of the tested derivatives.

[3] = Inhibition of linoleic acid peroxidation induced by AAPH; format: biochemical; conditions: no = no action under the experimental conditions
Excerpt: In the water soluble 2,2′-azobis(2-amidinopropane) hydrochloride (AAPH) the free radicals are produced in vitro through spontaneous thermal decomposition resembling to lipid peroxidation in cells due to the action of the peroxyl radicals. […] Compounds 11, 5, 4 and 3 presented no activity under the experimental conditions. From the experimental results it can be concluded that the 3,5-di-tert-butyl-group offers protection against lipid peroxidation. Electronic parameters expressed by the highest occupied molecular orbital (HOMO) describes better the biological activity (Equation (2)). log AAPH % = −22.042(± 8.731) HOMO − 4.853 (2.622)(2) n = 8, r = 0.930, r^2 = 0.864, q^2 = 0.567, s = 0.146, F1,8 = 5.783, α = 0.1
The oxidation reaction was started with 2,2′-Azobis(2-amidinopropane) dihydrochloride (AAPH) as a free radical initiator. Linoleic acid sodium salt was oxidized at 234 nm to a conjugated diene hydroperoxide resulting an increased absorption. Trolox was used as reference compound (93%) (Table 3).

[4] = Experimental lipophilicity as RM values by RPTLC; format: physicochemical; parameters: key: RM = log[(1/Rf) − 1], from Rf values by RPTLC; conditions: methanol/water 70/30, 24 °C, average of at least 5 measurements
Excerpt: Lipophilicity is a physicochemical parameter indicating the relationship of a drug to its biological activity. It affects ligand-target binding interactions, solubility, ADME (absorption, distribution, bioavailability, metabolism, and elimination) and toxicological effects. RPTLC (reverse phase thin layer chromatography) method was used for the experimental determination, as RM values. The RPTLC method is considered a secure, rapid and appropriate method for expressing the lipophilic character of a compound (Table 1).
Reversed phase TLC (RPTLC) was performed on silica gel plates impregnated with 5% (v/v) liquid paraffin in light petroleum ether. The mobile phase was a methanol/water mixture (70/30, v/v). The plates were developed in closed chromatography tanks saturated with the mobile phase at 24 °C. Spots were detected under UV light. Five individual measurements of Rf values were recorded and used for the determination of RM using the equation RM = log [(1/Rf) − 1] [59, 60, 62] (Table 2).

trypsin = assay: In vitro inhibition of trypsin induced proteolysis; format: biochemical; conditions: bovine albumin substrate, no = no action under the experimental conditions
Protocol: Serine proteases are implicated in the pathophysiology of inflammatory diseases and trypsin is well known years ago [66]. Trypsin has been associated with host defense reactions and tissue damage. In this study, the novel derivatives have been evaluated towards trypsin and thrombin. Compounds 8 and 9 present high activity.
The Kunitz method was used after modification using bovine albumin was used as substrate for trypsin. In this assay, first 200 μL of 0.075 mg/mL trypsin and 780 μL of phosphate buffer pH 7.6 including the tested compounds (20 μL in DMSO, final concentration 100 μM) were pre-incubated at 37 °C for 20 min and then added 1 mL of albumin (stock solution 6 g/100 mL in phosphate buffer 0.1 M, pH 7.6) and incubated at 37 °C for 30 min. Secondly 1mLof 5% trichloroacetic acid was added to the incubated solution to stop the enzyme’s reaction and allowed to set at room temperature for 1 h. Then the solution was filtered, and the absorption of the filtrate was measured at 280 nm using salicylic acid as a reference compound [61] (Table 3).

[5] = ABTS+. decolorization assay; format: biochemical; conditions: 1 min, no = no action under the experimental conditions
Excerpt: The radical cation ABTS^+• is directly generated through potassium persulfate by oxidation with no participation of an intermediary radical and then the reduction is followed by adding electron-donating antioxidants. In this assay the radical is generated before adding the antioxidant (decolorization assay). […] It seems that lipophilicity influences the activity, since both are presenting high lipophilicity values. […] The radical cation ABTS^+• was generated from an ABTS stock solution in water (7 mM) which was mixed with potassium persulfate (2.45 mM) and left in the dark at room temperature for 12–16 h before use. The results are recorded after 1min of the mixing solutions at 734 nm and compared to the appropriate standard inhibitor Trolox (Table 3).

bovine thrombin = target: T2, bovine thrombin (Bos taurus, UniProt P00735); assay: In vitro inhibition of thrombin; format: biochemical; conditions: substrate tosyl-Gly-Pro-Arg-pNA, no = no action under the experimental conditions, read-out: TH% 100 µM (thrombin inhibition)
T2 construct: purchased Sigma Chemical, Co. (St. Louis)
Protocol: It is well known that indandione derivatives exert their anticoagulant activity indirectly by inhibiting prothrombin synthesis in the liver. […] Derivatives 1, 2, 5, 8, 9, 10, and 12 were tested in vitro as possible thrombin inhibitors. Among the tested derivatives compound 8 presented 100% inhibition followed by compounds […] and 10.
As a substrate tosyl-Gly-Pro-Arg-pNA acetate salt was used at 1 mM final concentration. Compounds were dissolved at a final concentration of […] in a Tris-buffer (0.05 M Tris, 0.154 M NaCl, ethanol 5%, pH = 8.0). Three minutes after the addition of bovine thrombin (2.5 unit/mg), the reaction was ended by adding 1 mL acetic acid 50%. The absorption of the released p-nitro-aniline was measured at 405 nm (Table 3). Warfarin and Inogatran were used as reference compounds.

Row | SMILES | inhibition in vivo at 10 µmol/kg [1] | RA% 50 µM 20 min [2] | RA% 50 µM 60 min [2] | RA% 100 µM 20 min [2] | RA% 100 µM 60 min [2] | RA% 200 µM 20 min [2] | RA% 200 µM 60 min [2] | inhibition at 100 µM (soybean lipoxygenase) | AAPH% 100 µM (anti-lipid peroxidation) [3] | melting point | RM (±SD) [4] | Iptr% 100 µM (inhibition of trypsin induced proteolysis) (trypsin) | ABTS+. % 100 µM (decolorization activity) [5] | inhibition at 100 µM (bovine thrombin)
1 | COc1ccc2c(c1)c(CC(=O)O)c(C)n2C(=O)c1ccc(Cl)cc1 [Indomethacin, reference compound] | 47% |  |  |  |  |  |  |  |  |  |  |  |  | 
2 | O=C1C(=C/C=C\c2ccccc2)C(=O)c2ccccc21 [Compound 5, (Z)-2-(3-phenylallylidene)-1H-indene-1,3(2H)-dione] |  | 21% | 25% | 44% | 48% | 57% | 72% | 26.4% | no activity and no | 165 to 167 °C | 0.158 ± 0 | do not present any activity and no | no | 
3 | O=C(O)c1ccccc1O [Salycilic Acid, salicylic acid, reference compound] |  |  |  |  |  |  |  |  |  |  |  | 54% |  | 
4 | Cc1c(C)c2c(c(C)c1O)CCC(C)(C(=O)O)O2 (centres unmarked) [Trolox, reference compound] |  |  |  |  |  |  |  |  | 93% |  |  |  | 91% | 
5 | O=C1C(=Cc2ccc3[nH]ccc3c2)C(=O)c2ccccc21 [Compound 11, (Z)-2-((1H-indol-5-yl)methylene)-1H-indene-1,3(2H)-dione] |  | 2% | 2% | 19% | 19% | 10% | 10% | 38.6% | no activity and no | 223 to 225 °C | −0.196 ± 0.02 | 6% | 8% | 
6 | N=C(N)NCCCNC(=O)[C@@H]1CCCCN1C(=O)[C@@H](CC1CCCCC1)NCC(=O)O [Inogatran, reference compound] |  |  |  |  |  |  |  |  |  |  |  |  |  | 98%
7 | CC(Cc1ccc(O)c(O)c1)C(C)Cc1ccc(O)c(O)c1 (centres unmarked) [NDGA, Nordihydroguaretic acid, reference compound] |  | 81% | 83% | 87% | 93% | 94% | 96% |  |  |  |  |  |  | 
